{"source": "ChEMBL document CHEMBL3508140", "about": "(2016)", "key": {"[1]": {"experiment": "Decrease in albumin due to persistent proteinuria following intravenous idarubicin at 0.6 mg.Kg-1 per week in rat", "format": "toxicity, organism-based, SD, Serum", "set-up": "dose 0.6 mg.Kg-1, dosed compound id 2.46809e+06, dosed compound name Idarubicin, dose level Intermediate, gender Mixed, regimen Once per week, route intravenous, sampling time 36 Week, study doses 0/0.3/0.6/1 mg.Kg-1", "conditions": "in vivo"}, "[2]": {"experiment": "Incidence of persistent proteinuria following intravenous idarubicin at 0.3 mg.Kg-1 per week in rat", "format": "toxicity, organism-based, SD", "set-up": "dose 0.3 mg.Kg-1, dosed compound id 2.46809e+06, dosed compound name Idarubicin, dose level Low, gender Mixed, regimen Once per week, route intravenous, sampling time 36 Week, study doses 0/0.3/0.6/1 mg.Kg-1", "conditions": "in vivo"}, "[3]": {"experiment": "Incidence of leukocyturia following intravenous idarubicin at 0.6 mg.Kg-1 per week in rat", "format": "toxicity, organism-based, SD", "set-up": "dose 0.6 mg.Kg-1, dosed compound id 2.46809e+06, dosed compound name Idarubicin, dose level Intermediate, gender Mixed, regimen Once per week, route intravenous, sampling time 36 Week, study doses 0/0.3/0.6/1 mg.Kg-1", "conditions": "in vivo"}, "[4]": {"experiment": "(§1) Decrease in leukocytes observed following intravenous idarubicin at 0.6 mg.Kg-1 per week in rat", "format": "toxicity, organism-based, SD, Blood", "set-up": "dose 0.6 mg.Kg-1, dosed compound id 2.46809e+06, dosed compound name Idarubicin, dose level Intermediate, gender Mixed, regimen Once per week, route intravenous, sampling time 4 Week, study doses 0/0.3/0.6/1 mg.Kg-1", "conditions": "in vivo"}, "[5]": {"experiment": "Plasma clearance of 4-dem-daunorubicin following intravenous 4-dem-daunorubicin at 1.0 mg.Kg-1 dose in dog", "format": "ADME, organism-based, Canis lupus familiaris", "set-up": "dose 1 mg.Kg-1, dosed compound id 2.46809e+06, dosed compound name Idarubicin, route intravenous", "conditions": "Beagle, read-out: Clp"}, "[6]": {"experiment": "Incidence of leukocyturia following intravenous idarubicin at 0.3 mg.Kg-1 per week in rat", "format": "toxicity, organism-based, SD", "set-up": "dose 0.3 mg.Kg-1, dosed compound id 2.46809e+06, dosed compound name Idarubicin, dose level Low, gender Mixed, regimen Once per week, route intravenous, sampling time 36 Week, study doses 0/0.3/0.6/1 mg.Kg-1", "conditions": "in vivo"}, "[7]": {"experiment": "(§2) Decrease in leukocytes observed following intravenous idarubicin at 0.3 mg.Kg-1 per week in rat", "format": "toxicity, organism-based, SD, Blood", "set-up": "dosed compound id 2.46809e+06, dosed compound name Idarubicin, dose level Low, gender Mixed, route intravenous, sampling time 4 Week, study doses 0/0.3/0.6/1 mg.Kg-1", "conditions": "in vivo"}, "[8]": {"experiment": "Increase in serum phospholipid level following intravenous idarubicin at 0.6 mg.Kg-1 per week in rat", "format": "toxicity, organism-based, SD", "set-up": "dose 0.6 mg.Kg-1, dosed compound id 2.46809e+06, dosed compound name Idarubicin, dose level Intermediate, gender Mixed, regimen Once per week, route intravenous, sampling time 8-22 Week, study doses 0/0.3/0.6/1 mg.Kg-1", "conditions": "in vivo"}, "[9]": {"experiment": "Increase in serum phospholipid level following intravenous idarubicin at 0.3 mg.Kg-1 per week in rat", "format": "toxicity, organism-based, SD", "set-up": "dose 0.3 mg.Kg-1, dosed compound id 2.46809e+06, dosed compound name Idarubicin, dose level Low, gender Mixed, regimen Once per week, route intravenous, sampling time 8-22 Week, study doses 0/0.3/0.6/1 mg.Kg-1", "conditions": "in vivo"}, "[10]": {"experiment": "as §2", "format": "toxicity, organism-based, SD, Blood", "set-up": "dose 0.3 mg.Kg-1, dosed compound id 2.46809e+06, dosed compound name Idarubicin, dose level Low, gender Mixed, regimen Once per week, route intravenous, sampling time 8 Week, study doses 0/0.3/0.6/1 mg.Kg-1", "conditions": "in vivo"}, "[11]": {"experiment": "Terminal half-life of 4-dem-daunorubicin following intravenous 4-dem-daunorubicin at 1.0 mg.Kg-1 dose in dog", "format": "ADME, organism-based, Canis lupus familiaris", "set-up": "dose 1 mg.Kg-1, dosed compound id 2.46809e+06, dosed compound name Idarubicin, route intravenous", "conditions": "Beagle, plasma"}, "[12]": {"experiment": "as §1", "format": "toxicity, organism-based, SD, Blood", "set-up": "dosed compound id 2.46809e+06, dosed compound name Idarubicin, dose level Intermediate, gender Mixed, route intravenous, sampling time 8 Week, study doses 0/0.3/0.6/1 mg.Kg-1", "conditions": "in vivo"}, "[13]": {"experiment": "Increase in serum total cholesterol level following intravenous idarubicin at 0.3 mg.Kg-1 per week in rat", "format": "toxicity, organism-based, SD", "set-up": "dose 0.3 mg.Kg-1, dosed compound id 2.46809e+06, dosed compound name Idarubicin, dose level Low, gender Mixed, regimen Once per week, route intravenous, sampling time 8-22 Week, study doses 0/0.3/0.6/1 mg.Kg-1", "conditions": "in vivo"}, "[14]": {"experiment": "Mortality occurred following intravenous idarubicin at 0.6 mg.Kg-1 per week in rat", "format": "toxicity, organism-based, SD", "set-up": "dose 0.6 mg.Kg-1, dosed compound id 2.46809e+06, dosed compound name Idarubicin, dose level Intermediate, gender Mixed, regimen Once per week, route intravenous, sampling time 13 Week, study doses 0/0.3/0.6/1 mg.Kg-1", "conditions": "in vivo"}, "[15]": {"experiment": "Increase in serum triglycerides level following intravenous idarubicin at 0.6 mg.Kg-1 per week in rat", "format": "toxicity, organism-based, SD", "set-up": "dose 0.6 mg.Kg-1, dosed compound id 2.46809e+06, dosed compound name Idarubicin, dose level Intermediate, gender Mixed, regimen Once per week, route intravenous, sampling time 8-22 Week, study doses 0/0.3/0.6/1 mg.Kg-1", "conditions": "in vivo"}, "[16]": {"experiment": "Incidence of persistent proteinuria following intravenous idarubicin at 0.6 mg.Kg-1 per week in rat", "format": "toxicity, organism-based, SD", "set-up": "dose 0.6 mg.Kg-1, dosed compound id 2.46809e+06, dosed compound name Idarubicin, dose level Intermediate, gender Mixed, regimen Once per week, route intravenous, sampling time 36 Week, study doses 0/0.3/0.6/1 mg.Kg-1", "conditions": "in vivo"}, "[17]": {"experiment": "Increase in serum total cholesterol level following intravenous idarubicin at 0.6 mg.Kg-1 per week in rat", "format": "toxicity, organism-based, SD", "set-up": "dose 0.6 mg.Kg-1, dosed compound id 2.46809e+06, dosed compound name Idarubicin, dose level Intermediate, gender Mixed, regimen Once per week, route intravenous, sampling time 8-22 Week, study doses 0/0.3/0.6/1 mg.Kg-1", "conditions": "in vivo"}, "[18]": {"experiment": "Increase in serum triglycerides level following intravenous idarubicin at 0.3 mg.Kg-1 per week in rat", "format": "toxicity, organism-based, SD", "set-up": "dose 0.3 mg.Kg-1, dosed compound id 2.46809e+06, dosed compound name Idarubicin, dose level Low, gender Mixed, regimen Once per week, route intravenous, sampling time 8-22 Week, study doses 0/0.3/0.6/1 mg.Kg-1", "conditions": "in vivo"}, "[19]": {"experiment": "Volume of distribution of 4-dem-daunorubicin following intravenous 4-dem-daunorubicin at 1.0 mg.Kg-1 dose in dog", "format": "ADME, organism-based, Canis lupus familiaris", "set-up": "dose 1 mg.Kg-1, dosed compound id 2.46809e+06, dosed compound name Idarubicin, route intravenous", "conditions": "Beagle, plasma"}, "[20]": {"experiment": "Decrease in albumin due to persistent proteinuria following intravenous idarubicin at 0.3 mg.Kg-1 per week in rat", "format": "toxicity, organism-based, SD, Serum", "set-up": "dose 0.3 mg.Kg-1, dosed compound id 2.46809e+06, dosed compound name Idarubicin, dose level Low, gender Mixed, regimen Once per week, route intravenous, sampling time 36 Week, study doses 0/0.3/0.6/1 mg.Kg-1", "conditions": "in vivo"}}, "data": [{"smiles": "CC(=O)[C@]1(O)Cc2c(O)c3c(c(O)c2[C@@H](O[C@H]2C[C@H](N)[C@H](O)[C@H](C)O2)C1)C(=O)c1ccccc1C3=O", "note": "[IDARUBICIN]", "values": [{"measurement": "ALB_CHANGE", "setting": "[1]", "value": "OUTCOME = Decreased"}, {"measurement": "Incidence", "setting": "[2]", "value": "OUTCOME = Observed"}, {"measurement": "Incidence", "setting": "[3]", "value": "OUTCOME = Observed"}, {"measurement": "WBC_CHANGE", "setting": "[4]", "value": 50, "unit": "%"}, {"measurement": "clearance", "setting": "[5]", "value": 711, "unit": "mL/min"}, {"measurement": "Incidence", "setting": "[6]", "value": "OUTCOME = Observed"}, {"measurement": "WBC_CHANGE", "setting": "[7]", "value": 35, "unit": "%"}, {"measurement": "PHOSLPD_CHANGE", "setting": "[8]", "value": "OUTCOME = Increased"}, {"measurement": "PHOSLPD_CHANGE", "setting": "[9]", "value": "OUTCOME = Increased"}, {"measurement": "WBC_CHANGE", "setting": "[10]", "value": 35, "unit": "%"}, {"measurement": "half-life", "setting": "[11]", "value": 6, "unit": "min"}, {"measurement": "WBC_CHANGE", "setting": "[12]", "value": 55, "unit": "%"}, {"measurement": "CHOL_CHANGE", "setting": "[13]", "value": "OUTCOME = Increased"}, {"measurement": "Mortality", "setting": "[14]", "value": "OUTCOME = Observed, N_AFFECTED = 12"}, {"measurement": "TRIG_CHANGE", "setting": "[15]", "value": "OUTCOME = Increased"}, {"measurement": "Incidence", "setting": "[16]", "value": "OUTCOME = Observed"}, {"measurement": "CHOL_CHANGE", "setting": "[17]", "value": "OUTCOME = Increased"}, {"measurement": "TRIG_CHANGE", "setting": "[18]", "value": "OUTCOME = Increased"}, {"measurement": "Vd", "setting": "[19]", "value": 34.5, "unit": "L/kg"}, {"measurement": "ALB_CHANGE", "setting": "[20]", "value": "OUTCOME = Decreased"}]}]}
